US8192962B2, “Processes for detecting toxic substances” (Daikin Industries, Ltd., priority 2001, dated 2012)

Test system: Mitochondria-located protein genes
Experiment: DNA chip mRNA expression in yeast, mitochondria-located protein genes (Table 2)
Type: cell-based, Saccharomyces cerevisiae S288C
Settings: cells incubated two hours with the chemical substance
Method in brief: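 Ratios compare mRNA levels in stressed and control S. cerevisiae. Each toxicant was applied for two hours to log-phase cultures at 25° C. at a sub-lethal, growth-inhibiting level; fluorescent cDNA (Cy3- or Cy5-dUTP) was hybridized to a genome-wide yeast chip for over 12 h at 65° C.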

Measured: The level of expressed mRNA in the presence of chemical substance/The level of expressed mRNA in the absence of chemical substance

O=[N+]([O-])c1cc[n+]([O-])c2ccccc12 [(5), 4-nitroquinolin-N-oxide]
1.8: yeast gene YKL194C | yeast gene YLR038C | yeast gene YOR130C
1.7: yeast gene YML129C | yeast gene YMR023C
2.2: yeast gene YLR295C | yeast gene YMR193W
1.3: yeast gene YKL170W | yeast gene YML054C | yeast gene YPR024W
1.1: yeast gene YLR259C
1.6: yeast gene YLL041C | yeast gene YPL135W
1.5: yeast gene YKL016C | yeast gene YKL141W | yeast gene YMR083W | yeast gene YOR020C | yeast gene YOR037W | yeast gene YPR134W
0.7: yeast gene YKL142W | yeast gene YLR395C
1.0: yeast gene YKL003C | yeast gene YKR066C | yeast gene YMR267W | yeast gene YNL256W | yeast gene YOR100C | yeast gene YOR176W | yeast gene YOR316C
0.9: yeast gene YLR348C | yeast gene YNL055C | yeast gene YPR047W
0.6: yeast gene YLR304C | yeast gene YML120C | yeast gene YMR203W | yeast gene YNL071W | yeast gene YNL073W | yeast gene YOR187W | yeast gene YPL262W
1.4: yeast gene YOR142W | yeast gene YPL134C
1.2: yeast gene YOL096C
0.8: yeast gene YJR121W | yeast gene YKL148C | yeast gene YMR035W | yeast gene YMR089C | yeast gene YMR152W | yeast gene YNL104C | yeast gene YOR150W | yeast gene YPL040C | yeast gene YPL215W | yeast gene YPR037C
